Laboratory results reported in patent US12030876B2, “Aryl hydrocarbon receptor (AHR) agonists and uses thereof” (Ikena Oncology, Inc., priority 2019, dated 2024).

Key:
AHR [1] = target: T1, AHR (Mus musculus, UniProt P30561); assay: P450 CYP1A1 Luciferase Assay, Hepa1.6 (agonist); type: cell-based, murine; details: Hepa1.6, Table 2
T1 sequence (P30561 1-848 F348L/P471L): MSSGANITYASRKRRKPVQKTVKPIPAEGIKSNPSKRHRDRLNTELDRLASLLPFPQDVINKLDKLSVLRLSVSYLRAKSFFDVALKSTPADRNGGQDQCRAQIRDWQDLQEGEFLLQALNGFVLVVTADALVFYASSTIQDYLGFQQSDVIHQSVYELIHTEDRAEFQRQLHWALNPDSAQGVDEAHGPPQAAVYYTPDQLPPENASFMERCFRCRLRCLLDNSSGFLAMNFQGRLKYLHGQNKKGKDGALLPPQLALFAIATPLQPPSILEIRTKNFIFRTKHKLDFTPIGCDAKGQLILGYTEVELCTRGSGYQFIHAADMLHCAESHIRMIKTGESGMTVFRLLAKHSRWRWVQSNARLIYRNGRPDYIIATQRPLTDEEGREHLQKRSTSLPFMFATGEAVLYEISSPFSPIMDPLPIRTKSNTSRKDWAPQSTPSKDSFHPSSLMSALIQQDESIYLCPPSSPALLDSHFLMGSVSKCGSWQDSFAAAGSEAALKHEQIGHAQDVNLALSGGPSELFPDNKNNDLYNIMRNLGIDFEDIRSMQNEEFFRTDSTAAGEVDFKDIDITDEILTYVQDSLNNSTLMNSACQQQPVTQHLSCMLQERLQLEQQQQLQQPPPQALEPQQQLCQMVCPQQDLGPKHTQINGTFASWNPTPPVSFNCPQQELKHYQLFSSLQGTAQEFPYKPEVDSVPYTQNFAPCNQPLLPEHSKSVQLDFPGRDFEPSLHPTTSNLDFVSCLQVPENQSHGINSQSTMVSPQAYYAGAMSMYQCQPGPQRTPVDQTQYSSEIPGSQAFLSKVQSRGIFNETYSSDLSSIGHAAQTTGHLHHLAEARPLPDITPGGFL
Procedure, shortened: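 Murine Hepa1-6 (or other murine/human lines) treated with agonist for 6, 16 or 24 h, then lysed and incubated with luminogenic CYP1A1 substrate (e.g. Luciferin-CEE). Luminescence normalised between no-ligand minimum and reference AHR ligand maximum; EC50 is concentration giving half-maximal activation.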

AHR [2] = target: T2, AHR (Homo sapiens, UniProt P35869); assay: DRE-Luciferase Reporter Assay, HepG2 (agonist); type: cell-based; details: HepG2, Table 2; read-out: DRE-Luc HepG2 - Agonist: Average EC50
T2 construct: endogenous in cells; host or cells: HepG2 (human), transfected with a DRE-luciferase reporter only
T2 sequence (P35869 11-848): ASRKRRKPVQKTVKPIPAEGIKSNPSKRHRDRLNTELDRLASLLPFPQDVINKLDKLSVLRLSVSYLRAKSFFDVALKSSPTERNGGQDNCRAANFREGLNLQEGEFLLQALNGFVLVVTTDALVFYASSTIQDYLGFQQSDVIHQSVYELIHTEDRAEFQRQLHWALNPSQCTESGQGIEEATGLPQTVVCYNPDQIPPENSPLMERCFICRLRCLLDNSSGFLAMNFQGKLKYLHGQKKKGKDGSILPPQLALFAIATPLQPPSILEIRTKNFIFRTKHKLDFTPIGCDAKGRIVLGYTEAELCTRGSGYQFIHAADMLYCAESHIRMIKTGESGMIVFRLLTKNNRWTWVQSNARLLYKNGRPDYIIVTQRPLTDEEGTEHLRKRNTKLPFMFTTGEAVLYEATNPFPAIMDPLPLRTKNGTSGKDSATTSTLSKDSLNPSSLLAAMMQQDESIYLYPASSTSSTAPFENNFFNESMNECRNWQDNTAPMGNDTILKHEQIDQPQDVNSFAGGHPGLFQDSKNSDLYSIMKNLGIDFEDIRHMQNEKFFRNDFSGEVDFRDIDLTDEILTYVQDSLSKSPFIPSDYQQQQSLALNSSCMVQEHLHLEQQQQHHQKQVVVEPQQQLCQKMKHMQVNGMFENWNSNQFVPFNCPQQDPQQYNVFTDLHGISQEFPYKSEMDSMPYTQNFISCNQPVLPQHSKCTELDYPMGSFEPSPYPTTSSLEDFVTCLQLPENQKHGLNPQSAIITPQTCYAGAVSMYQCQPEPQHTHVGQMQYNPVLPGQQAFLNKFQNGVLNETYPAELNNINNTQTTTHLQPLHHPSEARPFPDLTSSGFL
Procedure, shortened: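 Cells carrying a stably or transiently transfected DRE-luciferase reporter, plated overnight at 37 C, then given agonist for 6, 16 or 24 h before lysis and luciferase read-out. Signal scaled between no ligand (minimum) and activating ligand alone, e.g. TCDD (maximum); EC50 = concentration giving half-maximal luciferase activity.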

| SMILES | EC50 (AHR [1]) | EC50 (AHR [2]) |
| --- | --- | --- |
| FC(F)(F)c1cccc(Nc2nc(-c3cccc(Cl)c3)cs2)c1 [Compound P-2] | 0.1 to 1 µM | < 0.01 µM |
| Nc1cccc(-c2csc(Nc3cccc(C(F)(F)F)c3)n2)c1 [I-10] | 0.1 to 1 µM | < 0.01 µM |
